# Literature values in patent publication US5087633A (G. D. Searle & Co., priority 1989, dated 1992).
# Settings: in vivo; cited from earlier work
structure (smiles),measurement,value
CCCCCNCC(N)=O [milacemide],Increase of whole brain content of glycine,30%
